This note sets out measurements from a melting point compilation (Tetko et al.; mined from patent text by program, amines drawn as free bases though some values may be those of a salt).

In general, melting point refers to the temperature of the solid-liquid transition.

For the compound `OCCc1cc(Br)ccc1O`, the melting point was in the range of 63 to 65 °C. The same measure for `Cc1ccn2c(=O)c(CCN3CCC(c4c[nH]c5ccccc45)CC3)c(C)nc2c1`: 236 °C. The same measure for `COc1ccc2sc(C(N)=O)c(SCCN3CCOCC3)c2c1`: 158 to 160 °C; for `O=C(Cc1ccc(Cl)c([N+](=O)[O-])c1)N[C@H]1C[C@H](C(=O)O)Nc2cc(Cl)cc(Cl)c21` (relative stereo): 233 to 235 °C; for `COc1ccc(COc2ccc(/C=C/c3cc(/C=C/c4ccc5cc[nH]c5c4)n[nH]3)c(OC)c2)cc1`: 211 to 214 °C. The same measure for `CCCCCCC(C)(C)c1cc(OCc2ccccc2)c(C2=C(C(C)(C)C#N)CCC(C)C2)c(OCc2ccccc2)c1` (configuration not stated): 65 to 66 °C; for `CCOC(=O)NC(=S)Nc1ncc(C(F)(F)F)cc1F`: 99 to 100 °C; for `CN1CCC(c2c[nH]c3ccc(OS(=O)(=O)c4c(F)cccc4F)cc23)CC1`: 214 to 215 °C.

Compound `O=S(=O)(Cl)C=Cc1c(Cl)cccc1Cl` returned a melting point of 88 to 90 °C. `COc1nc2ccccc2cc1NC(=O)N1CCN(c2cccc(C)c2C)CC1` registered a melting point of 174 to 175 °C. The same measure for `CC(=O)n1cc(C#N)c(-c2cccc(Cl)c2Cl)c1`: 136 to 137 °C; for `O=C(O)C1=COc2ccccc2O1`: 183 to 184 °C; for `O=C(O)c1c(O)cccc1-c1ccccc1`: 143 to 146 °C.

Take `CC(CC#N)CN1C(=O)c2ccccc2S1(=O)=O` (configuration not stated): the melting point lay in the range of 83 to 84 °C. The same measure for `COc1cc(OC)c2c(=O)[nH]c(-c3ccc(O)cc3)cc2c1`: 245 to 247 °C; for `O=C1NCc2c1c1c3cc(O)ccc3[nH]c1c1[nH]c3ccc(O)cc3c21`: greater than 330 °C; for `O=C(CCCCCCC1=CC(O)CC1=O)Oc1ccc(NC(=O)c2ccccc2)cc1` (configuration not stated): 168 to 169 °C.

The compound `O=c1c2cc(Oc3ccc(Cl)cc3)ccc2nnn1Cc1cccnc1` gave a melting point of 134 to 136 °C. The same measure for `CCOC(=O)c1cnc2c(SCc3ccccc3)cccn2c1=O`: 165 to 167 °C; for `COC1(c2cc(F)cc(Sc3ccc(C(CO)=NO)cc3)c2)CCOCC1`: 145 to 146 °C. In the case of `Cc1cccc(C(=O)Nc2nc(C(Cl)(Cl)Cl)ns2)c1` it was 142 °C; in that of `N#Cc1c(Nc2c(F)cccc2F)cccc1-c1ccccc1`, 139 to 141 °C.

Compound `CN(C)c1cc(CC(=O)O)cc(Cc2nc3c(F)c(F)cc(F)c3s2)c1` gave a melting point of 114 to 115 °C. In the case of `O=C(/C=C/c1cccc(NS(=O)(=O)c2ccc(C(=O)Nc3ccc(Cl)c(-c4ccccn4)c3)c(Cl)c2)c1)NO` it was 217 to 221 °C.

In turn, `C=C(c1ccc2cc(OC)ccc2c1)C(O)C(=O)OC` (configuration not stated) had a melting point of 90.6 to 92.5 °C. The same measure for `CCCCCCCCCCCCN1C(=O)C=CC1=O`: 56 °C; for `COc1ccc(Cl)cc1CN(CCO)c1ncnc2c1ncn2C1OC(CO)C(O)C1O` (configuration not stated): 98 to 100 °C; for `CNC(=S)C1(c2cccnc2)CCCCS1` (configuration not stated): 131 °C. In the case of `CCCCNc1cc(C(=O)OC)cc(S(N)(=O)=O)c1Oc1ccccc1` it was 146 °C; in that of `CC(C)[C@H](NC(=O)CC[C@H](C)CNC(=O)Cc1ccccc1)[C@@H](O)c1c(-c2ccccc2)c1=O`, 152 to 154 °C.

The compound `O=C1N(Cc2ccc3ccccc3c2)c2ccccc2N=C2CCCC12Cc1ccc2ccccc2c1` (configuration not stated) registered a melting point of 191 to 193 °C. The same measure for `CCOC(=O)C(=O)C(NC(=O)c1ccccc1)c1ccccc1` (configuration not stated): 80 to 83 °C; for `O=C(O)c1c(-c2ccccc2)c2ccccc2n1Cc1ccc(OCc2ccccc2)cc1`: 193 to 194 °C; for `COC(=O)c1cccc(Oc2ncccc2C(=O)NCc2ccccc2)c1`: 119 to 120 °C.

Take `CC(=O)Nc1cc(F)ccc1S(=O)(=O)CC#N`: the melting point fell in the range of 131 to 132 °C.

`CNC(=O)C(Cc1ccc(OC)cc1)NC(=O)C(C)(CC(C)C)c1ccccc1S` (configuration not stated) returned a melting point of 165 to 168 °C. Compound `COc1cccc2c1nc(C(F)F)n2-c1nc(N2CCOCC2)cc(N2C[C@@H](C)O[C@@H](C)C2)n1` registered a melting point of 132 to 134 °C. `Cc1cccc(NC(=O)NC2CN(C(=O)C3CCCCC3)c3ccccc3N(c3ccccc3)C2=O)c1` (configuration not stated) returned a melting point of 165 to 168 °C. The same measure for `COc1ccc(O)c(CSc2ccccc2CO)c1`: 80 to 82 °C; for `O=C(O)c1cn(CC2CCC2)c2cc(Cl)ccc12`: 191 to 193 °C. Regarding `CCCc1ccc(-c2ccc3c(c2)C=C(C(=O)OC)CCS3(=O)=O)cc1`, the melting point lay within 155 to 156 °C. The same measure for `Cc1cccc(OC(F)F)c1NC(=O)CCl`: 85 to 86 °C; for `CCOC(=O)Cc1nc(-c2ccccc2)n(C)n1`: 82 to 83 °C; for `O=C1CCNN1c1ccc(Cl)cc1`: 120 to 122 °C. The same measure for `CCSc1nc(C(C)(C)C)c[nH]1`: 116 to 120 °C; for `Cn1c(-c2ccc(F)cc2)c(OCCOc2ccc(C=C3SC(=O)NC3=O)cc2)c(=O)c2ccccc21`: 225 to 228 °C; for `NS(=O)(=O)c1ccc(NC(=O)c2ccccc2SSCC(O)CO)cc1` (configuration not stated): greater than 260 °C. For the compound `Cn1nc(Oc2ccc([N+](=O)[O-])c([N+](=O)[O-])c2)c(Cl)c1C(F)(F)F`, the melting point lay in the range of 139 to 140 °C. In the case of `CCCc1nn(-c2ccc(C(F)(F)F)cn2)cc1CCCOc1c(CC(=O)O)cccc1OCC` it was 133 to 134 °C. For `COc1ccc(-c2nc(CCCCCC(C#N)C(=O)O)oc2-c2ccc(OC)cc2)cc1` (configuration not stated), the melting point amounted to 150 °C. The same measure for `CCOC(=O)c1c(-c2ccccc2C)c2cc(Cl)ccc2[nH]c1=O`: 215 to 216 °C. The same measure for `O=[N+]([O-])c1ccc(NS(=O)(=O)C(F)(F)F)c(OC2CCCCC2)c1`: 93.5 to 95 °C. In the case of `Cc1cccc(-c2n[nH]cc2-c2ccc(F)c(-c3cn(CCN(C)C)cn3)c2)n1` it was 130 to 131 °C. The compound `Nc1ccccc1SCc1ncon1` showed a melting point of 57 °C. The same measure for `CS(=O)(=O)N(c1ccc(C#CCCN2CC=C(c3ccccc3)CC2)nc1)S(C)(=O)=O`: 168 to 170 °C.

The compound `COc1ccc(CC(=O)Nc2cc(Cl)ccc2O)cc1OC1CCCC1` showed a melting point of 151 to 152 °C. The same measure for `COc1ccc(C)cc1NC(=O)Nc1ccc(N2CCN(C(=O)Nc3ncccc3C)CC2)cc1`: 209 to 211 °C; for `CCCC1(CCC)CCC2(CC1)CC(=O)OC(=O)C2`: 91 to 93 °C. In the case of `NC(=O)c1cc2ncccc2n1-c1ccc([N+](=O)[O-])cc1` it was greater than 260 °C. In turn, `Cc1oc(-c2ccccc2)nc1CCOc1ccc(CN(O)C(N)=O)cc1F` displayed a melting point of 135 to 136 °C. Compound `CCOCCc1ccc(OCCNc2ncnc(COC)c2Cl)c(C)c1` yielded a melting point of 39 to 41 °C. In the case of `CCOC(=O)c1c(Cl)c2cc(Cl)cnc2[nH]c1=O`, the melting point was 228 °C. The same measure for `Cc1cc(C)cc(NC(=O)Cc2ccc(OC3(C(=O)N[C@@H](C)C(=O)O)CCCC3)cc2)c1`: 90 to 91 °C; for `Cc1nccc2[nH]c(=O)c(-c3noc(C4CC4)n3)cc12`: 259 to 260 °C. The same measure for `CC(C)(C)c1ccc(OP2OCC3(CO2)COP(Oc2ccc(C(C)(C)C)cc2C(C)(C)C)OC3)c(C(C)(C)C)c1` (configuration not stated): 174 to 177 °C; for `CC1(C)CC(OC(=O)CCCCCCCCC(=O)OC2CC(C)(C)N(OC3CCCCC3)C(C)(C)C2)CC(C)(C)N1OC1CCCCC1`: 56 to 59 °C; for `COc1ccc(-c2c(Cl)ncn2-c2ccc(S(=O)(=O)NC(C)(C)C)cc2)cc1F`: 208 to 210 °C. The same measure for `COC(=O)CCNc1cc(Oc2ccc(Cl)cc2Cl)ccc1[N+](=O)[O-]`: 115 °C. On to `Cc1ccc(-c2cc(OCC3CO3)c3ccccc3n2)cc1` (racemic), for which the melting point lay in the range of 100 to 102 °C. In the case of `CCOC(=O)C=Cc1ccc(C=Cc2csc3ccccc23)s1`, the melting point lay within 99 to 100 °C. In the case of `O=C(c1ccc(Br)cc1)c1cccc2cc[nH]c12` it was 162 to 164 °C; in that of `O=C1CCC(O)(c2ccc(Cl)c(Cl)c2)CN1Cc1ccc(F)cc1` (configuration not stated), 146 °C; in that of `CCCCN(Cc1ccc(-c2ccccc2S(=O)(=O)NC(=O)c2ccccc2Cl)cc1)C(=O)N(C)c1ccccc1C(F)(F)F`, greater than 60 °C.

`O=C1Nc2ccc([N+](=O)[O-])cc2C1(Br)Br` gave a melting point of 205 °C. Compound `CCCCOCCOc1ccc(-c2ccc(N3CC=CC3)c(C=O)c2)cc1` returned a melting point of 79 to 81 °C. In the case of `CNC(=O)c1[nH]c(C)c2c1CN=C(c1ccccc1F)c1cc(Cl)ccc1-2` it was 252 to 255 °C. The same measure for `Cc1ccccc1-c1cccc2c1CCn1cc(-c3ccccc3)nc1C2OC1CCN(C)CC1` (configuration not stated): 94 °C; for `CC(C)NC(=O)c1ccc(-c2ccc3nnn(Cc4ccc5ncccc5c4)c3n2)cc1F`: 177 to 179 °C; for `CCCCCC(O)C=CC1C(O)CC(=O)C1CCCCCCC(=O)Oc1ccc(-c2cc(=S)ss2)cc1` (configuration not stated): 101 to 105 °C. The same measure for `Cc1cc(C(=O)O)ccc1C1=CCC2CC1C2(C)C` (configuration not stated): 139 to 140 °C; for `COc1ccc(COc2cccc(OC)c2C(=O)/C=C(\Nc2cnc(C#N)cn2)SC)cc1`: 128 to 135 °C. Compound `CCOC(CCNC(=O)CCC(=O)NCCC(OCC)OCC)OCC` returned a melting point of 89 to 90 °C. In the case of `CCOC(=O)C1=C(CO)NC(CO)=C(C(=O)OCC)C1c1ccccc1Cl` it was 190 to 191 °C.

Compound `CCCCCCCCCCCCC1=C(OCC)C(=O)c2ccccc2C1=O` registered a melting point of 36 to 38 °C. In the case of `CSc1ccc(C=CC#N)cc1` it was 79 °C; in that of `CCC(C)c1ccc(NC(=O)c2sccc2S(=O)(=O)Nc2onc(C)c2Br)cc1` (configuration not stated), 205 to 208 °C.

Compound `COc1ccc2c(c1)Cc1nnc(S(C)=O)n1C=C2` (configuration not stated) yielded a melting point of 176 to 177 °C.
